pIC50: −log10 of the molar value.
How the values were obtained:
[1] = organism: Cavia porcellus; assay: Selectivity against histamine in smooth muscle of guinea pig trachea stimulated with histamine; type: functional; settings: Muscle tissue
[2] = organism: Rattus norvegicus; assay: Direct effect on rat stomach strip (RSS) preparation; type: functional
[3] = molecular target: T1, Thromboxane-A synthase (Homo sapiens, UniProt P24557); assay: Inhibitory activity against human platelet Thromboxane synthetase; settings: read-out: I 50
T1 sequence (P24557 whole entry): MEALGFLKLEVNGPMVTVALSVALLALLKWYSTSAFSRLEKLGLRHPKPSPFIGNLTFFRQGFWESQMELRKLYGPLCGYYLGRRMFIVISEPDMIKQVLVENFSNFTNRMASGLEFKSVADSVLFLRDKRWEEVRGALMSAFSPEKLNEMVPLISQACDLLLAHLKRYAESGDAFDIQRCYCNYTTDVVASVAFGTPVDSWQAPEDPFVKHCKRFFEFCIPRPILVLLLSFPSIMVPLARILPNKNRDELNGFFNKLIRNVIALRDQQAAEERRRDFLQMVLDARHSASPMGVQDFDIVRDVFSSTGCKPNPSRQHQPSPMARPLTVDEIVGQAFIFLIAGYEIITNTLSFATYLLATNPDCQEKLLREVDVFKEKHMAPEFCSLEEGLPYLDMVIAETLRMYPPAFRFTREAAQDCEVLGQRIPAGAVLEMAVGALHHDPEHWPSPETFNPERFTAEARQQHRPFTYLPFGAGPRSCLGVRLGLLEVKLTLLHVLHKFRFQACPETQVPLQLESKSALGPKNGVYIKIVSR

[4] = organism: Homo sapiens; assay: Inhibitory activity against aggregation of human platelet induced by epinephrine 2; type: functional
[5] = organism: Cavia porcellus; assay: Selectivity against 9,11-AZO-PGH2 induced contractions of smooth muscle guinea pig trachea; type: functional
[6] = organism: Homo sapiens; assay: Inhibitory activity against aggregation of human platelet induced by adenosine diphosphate; type: functional
[7] = organism: Homo sapiens; assay: Inhibitory activity against aggregation of human platelet induced by arachidonic acid; type: functional; settings: read-out: I50
[8] = organism: Homo sapiens; assay: Inhibitory activity against aggregation of human platelet induced by epinephrine 1; type: functional
[9] = organism: Homo sapiens; assay: Stimulatory activity against aggregation of human platelet induced by epinephrine 1; type: functional
[10] = organism: Homo sapiens; assay: Stimulatory activity against aggregation of human platelet induced by adenosine diphosphate; type: functional
[11] = organism: Homo sapiens; assay: Stimulatory activity against aggregation of human platelet induced by epinephrine 2; type: functional
[12] = molecular target: T1, Thromboxane-A synthase; assay: Inhibition of human platelet Thromboxane synthetase; settings: read-out: I50
[13] = organism: Homo sapiens; assay: Stimulatory activity against aggregation of human platelet induced by arachidonic acid; type: functional
[14] = molecular target: T2, Thromboxane-A synthase (Homo sapiens) (UniProt P24557); settings: 1000 uM
T2 sequence (whole entry): T1 sequence (P24557 whole entry)
Description: Inhibitory activity against human platelet Thromboxane synthetase at a dose of 1000 uM

[15] = organism: Homo sapiens; assay: stimulatory activity against aggregation of human platelet induced by adenosine diphosphate; type: functional
[16] = organism: Homo sapiens; assay: stimulatory activity against aggregation of human platelet induced by epinephrine 1; type: functional
[17] = organism: Homo sapiens; assay: stimulatory activity against aggregation of human platelet induced by arachidonic acid; type: functional
[18] = organism: Homo sapiens; assay: stimulatory activity against aggregation of human platelet induced by epinephrine 2; type: functional

SMILES	A50 [2] [µM]	pIC50 [7]	pIC50 ([1]; read-out: I50)	pIC50 ([4]; Homo sapiens, read-out: I50)	pIC50 [12]	pIC50 ([5]; read-out: I50)	pIC50 ([6]; Homo sapiens, read-out: I50)	pIC50 ([7]; Homo sapiens)	pIC50 ([8]; Homo sapiens, read-out: I50)	pIC50 ([4]; read-out: I50)	other results
CCCCC[C@@H](O)/C=C/[C@@H]1C2CCC(O2)[C@H]1C/C=C\CCCC(=O)O (stereo in doubt; 4a)	0.51	5.38	–	–	–	–	–	–	–	–	pIC50 ([1]; read-out: I 50): < 5.00; pIC50 [3]: 3.11; pIC50 ([4]; read-out: I 50): 5.00; pIC50 ([5]; read-out: I 50): 4.19; pIC50 ([6]; read-out: I 50): 3.82; pIC50 ([8]; read-out: I 50): < 3.00
CCCCC[C@H](O)/C=C/[C@@H]1C2CCC(O2)[C@H]1C/C=C\CCCC(=O)O (stereo partly specified)	2.9	–	5.62	5.38	3.00	6.47	5.80	6.52	5.66	–	A50 [9]: 30 µM; A50 [10]: 30 µM; A50 [11]: 30 µM; A50 [13]: 30 µM
CCCCC[C@@H](O)/C=C/[C@@H]1C2CCC(O2)[C@H]1C/C=C\CCCC(=O)O (stereo in doubt; 5d)	–	4.02	–	4.28	< 3.00	–	< 3.00	–	< 3.00	–	–
CCCCC[C@@H](O)/C=C/[C@H]1C2CCC(O2)[C@@H]1C/C=C\CCCC(=O)O (stereo in doubt; 5b)	0.88	5.02	< 5.00	–	< 3.00	5.31	–	–	–	6.15	pIC50 ([8]; read-out: I50): < 3.00
CCCCC[C@@H](O)/C=C/[C@@H]1C2CCC(O2)[C@@H]1C/C=C\CCCC(=O)O (stereo in doubt; 2d)	–	–	–	–	3.25	–	< 3.00	3.85	–	–	–
CCCCC[C@H](O)/C=C/[C@H]1C2CCC(O2)[C@@H]1C/C=C\CCCC(=O)O (stereo partly specified)	0.0009	–	< 5.00	4.25	< 3.00	5.66	< 3.00	4.64	< 3.00	–	A50 [9]: 0.26 µM; A50 [10]: 0.26 µM; A50 [11]: 0.26 µM; A50 [13]: 0.26 µM; inhibition [14]: 71%
CCCCC[C@H](O)/C=C/[C@@H]1C2CCC(O2)[C@@H]1C/C=C\CCCC(=O)O (stereo in doubt; 3b)	0.4	6.22	< 5.00	–	3.00	6.92	–	–	–	5.12	pIC50 ([6]; read-out: I50): 3.51; pIC50 ([8]; read-out: I50): 3.17
CCCCC[C@@H](O)/C=C/[C@@H]1C2CCC(O2)[C@@H]1C/C=C\CCCC(=O)O (stereo in doubt; 3a)	0.0015	–	< 5.00	–	3.00	< 5.00	–	–	–	–	A50 [15]: 2 µM; A50 [16]: 2 µM; A50 [17]: 2 µM; A50 [18]: 2 µM
CCCCC[C@H](O)/C=C/[C@@H]1C2CCC(O2)[C@@H]1C/C=C\CCCC(=O)O (stereo in doubt; 2c)	–	3.51	–	5.22	< 3.00	–	–	–	< 3.00	–	pIC50 ([6]; read-out: I50): < 3.00
CCCCC[C@@H](O)/C=C/[C@H]1C2CCC(O2)[C@H]1C/C=C\CCCC(=O)O (stereo in doubt; 3d)	–	4.03	–	–	–	–	–	–	–	3.77	–
CCCCC[C@@H](O)/C=C/[C@H]1C2CCC(O2)[C@@H]1C/C=C\CCCC(=O)O (stereo in doubt; 4d)	–	3.00	–	–	3.33	–	< 3.00	–	3.17	3.85	–
CCCCC[C@@H](O)/C=C/[C@H]1C2CCC(O2)[C@H]1C/C=C\CCCC(=O)O (stereo in doubt; 2b)	>10	3.44	< 5.00	3.89	< 3.00	< 5.00	< 3.00	–	< 3.00	–	–
CCCCC[C@H](O)/C=C/[C@H]1C2CCC(O2)[C@H]1C/C=C\CCCC(=O)O (stereo partly specified)	0.22	–	< 5.00	6.22	< 3.00	5.68	< 3.00	5.04	< 3.00	–	A50 [9]: 20 µM; A50 [10]: 20 µM; A50 [11]: 20 µM; A50 [13]: 20 µM

From ChEMBL document CHEMBL1122834, “Synthesis and in vitro pharmacology of 7-oxabicyclo[2.2.1]heptane analogues of thromboxane A2/PGH2” (J Med Chem, 1985)
